Test: xn = mol fraction of the nth substance listed
Details: 100 kPa

CCCN + CCCCCCCC[n+]1ccn(C)c1.F[P-](F)(F)(F)(F)F
speed of sound [m/s]
Details | x1 = 0.0976 | x1 = 0.218 | x1 = 0.263 | x1 = 0.3677 | x1 = 0.4676 | x1 = 0.5629 | x1 = 0.6971 | x1 = 0.7972 | x1 = 0.9087 | x1 = 1
293.15 K | 1408 | 1392.4 | 1388.7 | 1375.5 | 1363.8 | – | 1327.2 | 1296.3 | 1260.5 | –
298.15 K | 1393.2 | 1378.7 | 1375 | – | – | 1335.9 | – | – | 1244 | 1213.9
303.15 K | 1381.2 | 1362.6 | 1358.9 | 1344.5 | 1332.1 | 1316.2 | – | 1260.7 | – | –
308.15 K | 1368.6 | 1348.2 | – | 1330.1 | 1314.1 | 1299.6 | 1270.5 | 1239.1 | – | 1164.9
313.15 K | – | 1333.4 | – | 1312.1 | 1295.8 | 1278.5 | – | 1218.2 | 1177.2 | 1140.4

CCCN + CCCCCC[n+]1ccn(C)c1.F[P-](F)(F)(F)(F)F
x1 = 1
Details | speed of sound [m/s]
293.15 K | 1238.3
303.15 K | 1189.5
308.15 K | 1164.9
313.15 K | 1140.4

CCCN + CCCC[n+]1ccn(C)c1.F[P-](F)(F)(F)(F)F
speed of sound [m/s]
Details | x1 = 0.0684 | x1 = 0.155 | x1 = 0.2613 | x1 = 0.3519 | x1 = 0.4366 | x1 = 0.5956 | x1 = 0.69 | x1 = 0.79 | x1 = 0.9026 | x1 = 1
293.15 K | 1444.7 | 1429.8 | 1407.5 | – | 1371.3 | – | 1315 | 1288.8 | – | –
298.15 K | – | 1419.3 | 1395 | – | 1355.3 | 1320.6 | – | 1269.5 | 1235.5 | –
303.15 K | – | – | 1380.5 | – | 1338 | – | 1277.6 | 1247.8 | – | 1189.5
308.15 K | 1412.4 | – | 1365.2 | 1341 | 1319.8 | 1280.4 | 1257 | 1225.2 | 1189.2 | 1164.9
313.15 K | 1399.6 | 1380.1 | 1348.8 | 1324.5 | 1300 | – | – | 1202.5 | 1165.5 | 1140.4

CCCCCCCC[n+]1ccn(C)c1.F[P-](F)(F)(F)(F)F + CCCN
x2 = 0
Details | speed of sound [m/s]
293.15 K | 1421.2
298.15 K | 1406.4
308.15 K | 1378.8
313.15 K | 1365.7

CCCCCC[n+]1ccn(C)c1.F[P-](F)(F)(F)(F)F + CCCN
speed of sound [m/s]
Details | x2 = 0 | x2 = 0.0873 | x2 = 0.1718 | x2 = 0.2686 | x2 = 0.3426 | x2 = 0.4606 | x2 = 0.5627 | x2 = 0.6597 | x2 = 0.7913 | x2 = 0.902
293.15 K | 1436.9 | – | 1411 | 1396.5 | 1385.5 | 1365.7 | 1347.1 | 1324 | 1289.8 | 1258.5
298.15 K | 1423.5 | 1408 | – | 1382.6 | 1370.4 | 1350.8 | 1330.3 | 1309 | 1271.5 | 1238.6
303.15 K | 1410.6 | 1396.1 | – | 1366.5 | 1354.3 | – | – | 1291.1 | 1253.1 | 1216.1
308.15 K | 1398.2 | – | 1370.6 | 1351.7 | 1337.3 | 1315.3 | – | – | 1230.8 | 1193
313.15 K | – | 1372.5 | 1357.5 | 1336.2 | 1320.4 | 1297.1 | – | 1250 | – | 1170

CCCC[n+]1ccn(C)c1.F[P-](F)(F)(F)(F)F + CCCN
x2 = 0
Details | speed of sound [m/s]
293.15 K | 1454.7
298.15 K | 1442.4
303.15 K | 1430.3
308.15 K | 1418.5
313.15 K | 1406.8

Reference: a compilation of properties of binary mixtures (doi:10.1007/s10953-015-0325-1)
